Values of other authors, collected in patent US11413229B2, “Oral plaque dispersion agent” (KAO CORPORATION, priority 2016, dated 2022).

Details: at 20° C.

solubility to water: 60 g/100 mL
Compound: CC(CO)(CO)CO [Trimethylolethane, 1,1,1-tris(hydroxymethyl)ethane]
